Assay [1] addresses T1, recombinant human BCAT2 enzyme (Homo sapiens, UniProt O15382).
T1 construct: purchased ATGen (South Korea) ATGP1523
T1 sequence (O15382 28-392): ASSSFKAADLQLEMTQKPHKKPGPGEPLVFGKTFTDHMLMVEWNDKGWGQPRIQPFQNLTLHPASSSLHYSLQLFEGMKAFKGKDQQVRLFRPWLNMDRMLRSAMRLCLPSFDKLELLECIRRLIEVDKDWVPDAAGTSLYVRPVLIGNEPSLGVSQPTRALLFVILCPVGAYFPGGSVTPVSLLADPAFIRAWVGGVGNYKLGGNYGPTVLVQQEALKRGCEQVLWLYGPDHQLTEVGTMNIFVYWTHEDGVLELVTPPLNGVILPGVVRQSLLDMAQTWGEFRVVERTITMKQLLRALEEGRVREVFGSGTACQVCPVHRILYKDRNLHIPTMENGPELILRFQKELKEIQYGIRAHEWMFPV
Briefly: In vitro assay 1b: BCAT2 biochemical assay (coupled LeuDH/NADH fluorescence readout). As to BCAT2 IC50 [M]: recombinant human BCAT2 0.75 nM. As for the experimental part: (§1) In Vitro Assay 1a and 1b: BCAT1 and BCAT2 Biochemical Assay
(§2) BOAT (Branched chain amino acid transferase) catalyzes transamination of the branched chain amino acid leucine to α-ketoisocaproate (KIC). The BOAT enzymatic reaction was measured in a coupled readout with leucine dehydrogenase (LeuDH) which catalyzes the Nicotinamide adenine dinucleotide (NADH) dependent reduction of KIC to leucine. NADH consumption is measured by fluorescent readout.
(§3) The biochemical reactions were performed at 32° C. in 384-well plates using a reaction volume of 51 μl and the following assay buffer conditions: 50 mM HEPES (2-[4-(2-hydroxyethyl)piperazin-1-yl]ethanesulfonic acid) pH 8.0, 50 mM aqueous solution of ammonium sulfate, 1 mM ethylenediaminetetraacetic acid, 2 mM dithiothreitol, 0.01% bovine serum albumine, 0.005% Brij 35 detergent, 0.5 μM PLP (pyridoxalphosphate), 10 μM NADH, and 50 μM α-ketoglutarate), and 100 μM leucine. […] Test compounds were used in a concentration range between 0.005 and 30 μM. The final DMSO concentration was 2%.
(§4) The reaction was initiated by addition of substrates (Leucine, α-KG, NADH).

The target in assay [2] is T2, recombinant human BCAT1 enzyme (Homo sapiens, UniProt P54687).
T2 construct: purchased ATGen (South Korea) ATGP1479
T2 sequence (P54687 1-386): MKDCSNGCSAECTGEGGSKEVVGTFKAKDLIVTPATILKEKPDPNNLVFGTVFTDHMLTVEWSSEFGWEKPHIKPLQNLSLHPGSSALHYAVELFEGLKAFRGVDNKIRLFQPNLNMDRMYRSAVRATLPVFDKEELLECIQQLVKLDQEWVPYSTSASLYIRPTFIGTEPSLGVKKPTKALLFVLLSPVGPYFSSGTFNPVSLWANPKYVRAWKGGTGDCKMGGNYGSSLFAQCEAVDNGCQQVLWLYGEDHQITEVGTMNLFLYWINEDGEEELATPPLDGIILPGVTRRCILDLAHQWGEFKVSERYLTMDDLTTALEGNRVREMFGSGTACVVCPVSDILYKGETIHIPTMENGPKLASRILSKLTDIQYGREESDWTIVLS
Briefly: In vitro assay 1a: BCAT1 biochemical assay (coupled LeuDH/NADH fluorescence readout). How it is done:
as §1, §2, §3, §4

The next assay has as its system U87-MG cells. Briefly: In vitro assay 2: BCAT cellular assay, leucine in medium of U87-MG cells. The assay is classed as cell-based. The conditions noted are these: 24 hours incubation, leucine level in medium (LeuDH/diaphorase/resazurin readout). How it is done:
(§5) In Vitro Assay 2: BCAT Cellular Assay
(§6) Levels of leucine were measured in medium of different tumor cell lines. The enzyme BOAT (Branched chain amino acid transferase) catalyzes the consumption of leucine.
(§7) Cells (U87-MG and MDA-MB231 from ATCC) were grown in Dulbecco's Modified Eagle Medium (DMEM) containing 10% fetal calf serum. They were harvested by trypsin and seeded into 96-well plates. Cells were incubated overnight at 37° C. in an atmosphere containing 5% carbon dioxide. The next day test compounds were added to each cell well. The final concentration of dimethylsulfoxide (DMSO) was 0.1% and DMSO controls were included. The plates were then placed in an incubator for 24 hours.
(§8) Leucine was measured in an enzymatic readout with leucine dehydrogenase (LeuDH) and diaphorase. Medium is deproteinized with perchloric acid. 30 μl of 1 M aqueous perchloric acid was added to each well and the plates were centrifuged.

A further assay relates to MDA-MB231 cells. Put plainly: In vitro assay 2: BCAT cellular assay, leucine in medium of MDA-MB231 cells. Type of assay: cell-based. The conditions noted are these: 24 hours incubation, leucine level in medium (LeuDH/diaphorase/resazurin readout), read-out: MDAMB-231 IC50. How it is done: as §5, §6, §7, §8
[3] abbreviates: recombinant human BCAT2 […], 32° C., 100 μM leucine, 50 μM α-ketoglutarate, NADH fluorescence over 90 min, read-out: BCAT2 IC50.
The mark [4] stands for this setting: recombinant human BCAT1 […], 32° C., 100 μM leucine, 50 μM α-ketoglutarate, NADH fluorescence over 90 min, read-out: BCAT1 IC50.

Where two headings read alike, the source gives them in different places. A value given as a limit tells only on which side of the number the result lay.

Regarding `COc1cc(Cl)c(Oc2ccccc2Cl)cc1-n1c(=O)cc(C(F)(F)F)[nH]c1=O` (racemic) [Example 50, 3-[4-Chloro-5-(2-chlorophenoxy)-2-methoxyphenyl]-6-(trifluoromethyl)pyrimidine-2,4(1H,3H)-dione (rac)], the IC50 in assay [1] (setting [3]) is 5e-06 M; in assay [2] (setting [4]), 7.5e-07 M; in the assay on U87-MG cells (Homo sapiens, U-87 MG, 24 h), 3.6 µM.
Regarding `COc1cc(C#N)c(Oc2ccccc2Cl)cc1-n1c(=O)cc(C(F)(F)F)[nH]c1=O` (single isomer, unassigned) [Example 16, 2-(2-Chlorophenoxy)-4-[2,6-dioxo-4-(trifluoromethyl)-3,6-dihydropyrimidin-1(2H)-yl]-5-methoxybenzonitrile (atrop 1)], the IC50 in assay [1] (setting [3]) was 2.5e-06 M; in the assay on MDA-MB231 cells (Homo sapiens, MDA-MB-231, 24 h), 10.8 µM; in assay [2] (setting [4]), 1.5e-07 M; in the assay on U87-MG cells (Homo sapiens, U-87 MG, 24 h) it was 5.4 µM.
With `COc1cc(C#N)c(Oc2ccccc2C)cc1-n1c(=O)cc(S(=O)(=O)c2ccccc2)[nH]c1=O` (single isomer, unassigned) [Example 77, 4-[4-(Benzenesulfonyl)-2,6-dioxo-3,6-dihydropyrimidin-1(2H)-yl]-5-methoxy-2-(2-methylphenoxy)benzonitrile (atrop 1)], the IC50 worked out at 7.7e-07 M in assay [1] (setting [3]); 16 µM with MDA-MB231 cells; 16.5 µM in the assay with U87-MG cells (Homo sapiens, U-87 MG, 24 h).
For `COc1cc(C#N)c(Oc2ccccc2C)cc1-n1c(=O)cc(C(F)(F)F)[nH]c1=O` (single isomer, unassigned) [Example 5, 4-[2,6-Dioxo-4-(trifluoromethyl)-3,6-dihydropyrimidin-1(2H)-yl]-5-methoxy-2-(2-methylphenoxy)benzonitrile (atrop 1)], the IC50 is 1.13e-07 M in assay [2] (BCAT1 IC50 [M]) and 6 µM in the assay on U87-MG cells (Homo sapiens, U-87 MG, 24 h).
As for `Cc1ccccc1Oc1cc(-n2c(=O)cc(C(F)(F)C(F)(F)F)[nH]c2=O)c(F)cc1C#N` [Example 52, 4-[2,6-dioxo-4-(pentafluoroethyl)-3,6-dihydropyrimidin-1(2H)-yl]-5-fluoro-2-(2-methylphenoxy)benzonitrile], the IC50 with MDA-MB231 cells (Homo sapiens, MDA-MB-231, 24 h) came out at 30 µM; in assay [2] (setting [4]) it was 1.35e-06 M; in the assay with U87-MG cells (Homo sapiens, U-87 MG, 24 h), 2.95 µM.
As to `Cc1ccccc1Oc1cc(-n2c(=O)cc(-c3cccc(Cl)c3)[nH]c2=O)c(F)cc1C#N` [Example 70, 4-[4-(3-Chlorophenyl)-2,6-dioxo-3,6-dihydropyrimidin-1(2H)-yl]-5-fluoro-2-(2-methylphenoxy)benzonitrile], the IC50 in the assay with MDA-MB231 cells (Homo sapiens, MDA-MB-231, 24 h) is above 30 µM; in assay [2] (setting [4]) it was 1.33e-06 M; in the assay on U87-MG cells, above 30 µM; in the assay with U87-MG cells (Homo sapiens, U-87 MG, 24 h), 30 µM.
Take `COc1cc(C#N)c(Oc2ccccc2C)cc1-n1c(=O)cc(C(N)=O)[nH]c1=O` (racemic) [Example 73, 1-[4-Cyano-2-methoxy-5-(2-methylphenoxy)phenyl]-2,6-dioxo-1,2,3,6-tetrahydropyrimidine-4-carboxamide (rac)]: the IC50 was 5.9e-06 M in assay [1] (setting [3]); 9e-07 M in assay [2] (setting [4]); above 30 µM with U87-MG cells (Homo sapiens, U-87 MG, 24 h).
On the same counts, the results for `COc1cc(Cl)c(Oc2ccccc2C)cc1-n1c(=O)cc(C(F)F)[nH]c1=O` (racemic) [Example 28, 3-[4-Chloro-2-methoxy-5-(2-methylphenoxy)phenyl]-6-(difluoromethyl)pyrimidine-2,4(1H,3H)-dione (rac)] are 3.5e-06 M, 2.8e-07 M and 6.2 µM.
`COc1cc(C#N)c(Oc2ccccc2C)cc1-n1c(=O)cc(S(=O)(=O)c2ccccc2)[nH]c1=O` (single isomer, unassigned) [Example 78, 4-[4-(Benzenesulfonyl)-2,6-dioxo-3,6-dihydropyrimidin-1(2H)-yl]-5-methoxy-2-(2-methylphenoxy)benzonitrile (atrop 2)]: the IC50 is 1.4e-07 M in assay [1] (setting [3]), 3.8 µM in the assay with MDA-MB231 cells and 12.5 µM in the assay on U87-MG cells.
For `Cc1ccccc1Oc1cc(-n2c(=O)cc(C(F)(F)F)[nH]c2=O)c(C)cc1C#N` (single isomer, unassigned) [Example 9, 4-[2,6-Dioxo-4-(trifluoromethyl)-3,6-dihydropyrimidin-1(2H)-yl]-5-methyl-2-(2-methylphenoxy)benzonitrile (atrop 2)], the IC50 in assay [1] (BCAT2 IC50 [M]) is 9e-07 M; in assay [2] (BCAT1 IC50 [M]), 8e-08 M; with U87-MG cells, 1.5 µM.
With `Cc1ccccc1Oc1cc(-n2c(=O)cc(C(=O)NCC(F)(F)F)[nH]c2=O)c(F)cc1C#N` [Example 71, 1-[4-Cyano-2-fluoro-5-(2-methylphenoxy)phenyl]-2,6-dioxo-N-(2,2,2-trifluoroethyl)-1,2,3,6-tetrahydropyrimidine-4-carboxamide], the IC50 in the assay with MDA-MB231 cells (Homo sapiens, MDA-MB-231, 24 h) is above 30 µM; in assay [2] (setting [4]), 1.75e-06 M; in the assay with U87-MG cells (Homo sapiens, U-87 MG, 24 h), above 30 µM.
As to `COc1cc(C#N)c(Oc2ccccc2C)cc1-n1c(=O)cc(-c2ccc(C(F)(F)F)cc2)[nH]c1=O` (racemic) [Example 69, 4-{2,6-Dioxo-4-[4-(trifluoromethyl)phenyl]-3,6-dihydropyrimidin-1(2H)-yl}-5-methoxy-2-(2-methylphenoxy)benzonitrile (rac)], the IC50 in assay [2] (setting [4]) is 4.5e-06 M; in the assay on U87-MG cells (Homo sapiens, U-87 MG, 24 h), above 30 µM.
As to `Cc1ccccc1Oc1cc(-n2c(=O)cc(C(F)(F)F)[nH]c2=O)c(C)cc1C#N` (single isomer, unassigned) [Example 8, 4-[2,6-Dioxo-4-(trifluoromethyl)-3,6-dihydropyrimidin-1 (2H)-yl]-5-methyl-2-(2-methylphenoxy)benzonitrile (atrop 1)], the IC50 in assay [1] (BCAT2 IC50 [M]) worked out at 9e-06 M; in assay [2] (BCAT1 IC50 [M]), 1.1e-06 M; in the assay with U87-MG cells, 6 µM.
As to `Cc1cccc(C)c1Oc1cc(-n2c(=O)cc(C(F)(F)F)[nH]c2=O)ccc1C#N` [Example 48, 2-(2,6-Dimethylphenoxy)-4-[2,6-dioxo-4-(trifluoromethyl)-3,6-dihydropyrimidin-1 (2H)-yl]benzonitrile], the IC50 in assay [1] (setting [3]) was 4.15e-06 M; in the assay on MDA-MB231 cells (Homo sapiens, MDA-MB-231, 24 h) it was 25 µM; in assay [2] (setting [4]) it was 6.97e-07 M.
Take `COc1cc(C#N)c(Oc2ccccc2C)cc1-n1c(=O)cc(Br)[nH]c1=O` (single isomer, unassigned) [Example 20, 4-[4-Bromo-2,6-dioxo-3,6-dihydropyrimidin-1(2H)-yl]-5-methoxy-2-(2-methylphenoxy)benzonitrile (atrop 1)]: the IC50 stood at 2.3e-05 M in assay [1] (setting [3]), 27 µM with MDA-MB231 cells and 2.35e-06 M in assay [2] (setting [4]).
As to `Cc1ccccc1Oc1cc(-n2c(=O)cc(-c3ccc(C(F)(F)F)cc3)[nH]c2=O)c(F)cc1C#N` [Example 68, 4-{2,6-Dioxo-4-[4-(trifluoromethyl)phenyl]-3,6-dihydropyrimidin-1(2H)-yl}-5-fluoro-2-(2-methylphenoxy)benzonitrile], the IC50 in the assay on MDA-MB231 cells (Homo sapiens, MDA-MB-231, 24 h) is 9 µM; in assay [2] (setting [4]), 2.16e-06 M; in the assay on U87-MG cells (Homo sapiens, U-87 MG, 24 h), 7.5 µM.

Values taken from US20220411381A1, “PYRIMIDINEDIONE DERIVATIVES” (Bayer Aktiengesellschaft, priority 2019, published 2022).
